Series [1] has as its target T1, Peroxisome proliferator-activated receptor alpha (Homo sapiens, UniProt Q07869).
T1 sequence (Q07869 whole entry): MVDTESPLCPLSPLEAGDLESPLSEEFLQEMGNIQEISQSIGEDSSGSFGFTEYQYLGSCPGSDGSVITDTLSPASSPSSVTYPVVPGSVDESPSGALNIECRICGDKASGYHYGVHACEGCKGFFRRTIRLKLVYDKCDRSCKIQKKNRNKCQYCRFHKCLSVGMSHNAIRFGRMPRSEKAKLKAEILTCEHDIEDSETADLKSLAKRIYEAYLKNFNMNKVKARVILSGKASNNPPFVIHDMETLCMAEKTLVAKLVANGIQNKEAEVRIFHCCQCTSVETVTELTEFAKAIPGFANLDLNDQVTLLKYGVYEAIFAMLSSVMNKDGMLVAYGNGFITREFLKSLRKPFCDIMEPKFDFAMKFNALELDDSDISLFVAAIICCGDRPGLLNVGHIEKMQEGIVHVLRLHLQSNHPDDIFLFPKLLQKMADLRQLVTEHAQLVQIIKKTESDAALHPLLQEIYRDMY
The series can be described thus: In vitro binding affinity against human Peroxisome proliferator activated receptor alpha.

A short description of series [2]: Oral bioavailability in rat (Sprague-Dawley) (fasted male) (dose 2 mg/kg). It counts as ADME, organism-based. As to conditions: in vivo.
The test system of series [3] is Rattus norvegicus. The series can be described thus: Dose-normalized AUC measured in fasted male Sprague dawely rats when the compound was administered at a peroral dose of 2 mg/Kg. The series is classed as ADME, organism-based. As to conditions: in vivo, po.
Series [4] addresses T2, Peroxisome proliferator-activated receptor delta (Homo sapiens, UniProt Q03181).
T2 sequence (Q03181 whole entry): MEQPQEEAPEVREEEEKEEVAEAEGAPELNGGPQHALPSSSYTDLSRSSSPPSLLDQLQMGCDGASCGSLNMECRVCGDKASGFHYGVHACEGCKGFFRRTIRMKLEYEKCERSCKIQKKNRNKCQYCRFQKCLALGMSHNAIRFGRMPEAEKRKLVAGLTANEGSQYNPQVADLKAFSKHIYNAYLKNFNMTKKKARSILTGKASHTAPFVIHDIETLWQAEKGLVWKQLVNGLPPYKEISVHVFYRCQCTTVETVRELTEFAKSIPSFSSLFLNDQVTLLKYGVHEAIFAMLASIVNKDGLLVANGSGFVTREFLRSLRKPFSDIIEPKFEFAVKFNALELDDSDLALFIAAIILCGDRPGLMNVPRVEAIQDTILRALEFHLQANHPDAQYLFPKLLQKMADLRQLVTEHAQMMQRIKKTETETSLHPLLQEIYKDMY
Description: In vitro binding affinity against human Peroxisome proliferator activated receptor delta

A short description of series [5]: Half life was measured in fasted male administration of compound 0.5 mg/Kg i.v. The series is classed as ADME, organism-based. As to conditions: rat, in vivo, iv.
Series [6] deals with Mus musculus. The series can be described thus: In vivo efficacy as percent glucose correction in male db/db mice at 10 mg/kg oral dose. The series is classed as functional.
Series [7] deals with Mus musculus. The series can be described thus: In vivo efficacy as percent triglyceride correction in male db/db mice at 10 mg/kg oral dose. It counts as functional.
The nature of series [8]: Plasma clearance in fasted male Sprague dawely rats on administration of 0.5 mg/Kg i.v. of the compound. The conditions noted are these: Sprague-Dawley, rat, iv, read-out: Clp. It counts as ADME, organism-based.
Series [9] deals with T2, Peroxisome proliferator-activated receptor delta. This is another data set of the same source.
Description: In vitro transactivation of human Peroxisome proliferator activated receptor delta measured in PPAR-GAL4 chimeric COS-1 cells
A short description of series [10]: Bioavailability in fasted male administration of 2 mg/Kg of compound p.o. The series is classed as ADME, organism-based. The conditions noted are these: rat, in vivo, po.
Series [11] has as its system Rattus norvegicus. The series can be described thus: Dose-normalized AUC measured in fasted male Sprague dawely rats when the compound was administered at a peroral of 2 mg/Kg. The series is classed as ADME, organism-based. As to conditions: in vivo, po.

As to `CCCc1cc(Oc2ccccc2)ccc1OCCCOc1ccc(C2SC(=O)NC2=O)cc1` (configuration not stated), the concentration for half-maximal inhibition (IC50) (as a rule, the midpoint of a concentration-inhibition curve) in series [1] is over 50 µM.

Consider `CCCc1cc(Oc2ccc(Cl)c(Cl)c2)ccc1OCCCOc1cccc(C2SC(=O)NC2=O)c1` (configuration not stated), for which, in series [2], the bioavailability (as a rule, dose-corrected exposure relative to a reference, in per cent) was found to be 19%. This molecule came in with a nAUC in series [3] of 0.8 uMh. Further, the IC50 in [4] is over 50 µM. For the same molecule, the half-life (in general, the time in which the quantity being followed falls by half) in [5] is 2.2 h. This molecule also registered a Glucose correction in series [6] of 79%. In [7], this molecule had a Triglyceride correction of 77%. Moreover, the clearance in series [8] worked out at 7.9 mL/min/kg. For the same molecule, the concentration giving a half-maximal response (EC50) (usually the concentration giving half of the maximal effect) in series [9] was over 3 µM.

In [4], `CCCc1cc(Oc2ccc(CC(C)C)cc2)ccc1OCCCOc1cccc(C2SC(=O)NC2=O)c1` (configuration not stated) registered an IC50 of over 50 µM.

`CCCc1cc(Oc2ccc(Cl)c(C)c2)ccc1OCCCOc1cccc(C2SC(=O)NC2=O)c1` (configuration not stated) yielded an IC50 in [4] of over 50 µM. The EC50 in series [9] was over 3 µM.

For `CCCc1cc(Oc2ccccc2)ccc1OCCCCOc1cccc(C2SC(=O)NC2=O)c1` (configuration not stated), the IC50 in [4] was 3 µM.

In turn, `CCCc1cc(Oc2ccc(Cl)cc2)ccc1OCCCOc1cccc(C2SC(=O)NC2=O)c1` (configuration not stated) returned a bioavailability in series [2] of 44%. This molecule returned a nAUC in series [3] of 1.5 uMh. For the same molecule, the concentration for half-maximal inhibition (IC50) in [4] was over 50 µM. This molecule also gave a half-life in [5] of 2.9 h. Further, in [6], the Glucose correction came out at 86%. The molecule further displayed a Triglyceride correction in [7] of 68%. Also, in [8], the clearance is 9.7 mL/min/kg. Besides, the 50% effective concentration (EC50) in series [9] was over 3 µM.

In series [4], `CCCc1cc(Oc2ccc(OC)cc2)ccc1OCCCOc1cccc(C2SC(=O)NC2=O)c1` (configuration not stated) yielded a 50% inhibitory concentration (IC50) of over 10 µM. In series [9], this molecule came in with an EC50 of over 3 µM.

Take `CCCc1cc(Oc2ccccc2)ccc1OCCCOc1cccc(C2SC(=O)NC2=O)c1` (configuration not stated): the nAUC in series [3] is recorded as 21.78 uMh. In addition, in [5], the half-life was 1.5 h. In series [6], this molecule gave a Glucose correction of 91%. In addition, the Triglyceride correction in series [7] is on record as 67%. Besides, the bioavailability in [10] came to 62%. In series [8], the clearance was determined as 9.5 mL/min/kg.

Consider `CCCc1cc(Oc2ccc(O)cc2)ccc1OCCCOc1cccc(C2SC(=O)NC2=O)c1` (configuration not stated), for which the IC50 in series [4] stood at 3.8 µM. This molecule also came in with an EC50 in series [9] of over 3 µM.

In [2], `CCCc1cc(Oc2ccc(C(C)C)cc2)ccc1OCCCOc1cccc(C2SC(=O)NC2=O)c1` (configuration not stated) registered a bioavailability of 6%. Moreover, the nAUC in series [11] turned out to be 0.3 uMh. The molecule further showed a half-inhibitory concentration (IC50) in series [4] of over 50 µM. The molecule further showed a half-life in series [5] of 3.3 h. The clearance in [8] was 6.1 mL/min/kg. Besides, the concentration giving a half-maximal response (EC50) in series [9] is over 3 µM.

In series [4], `CCCc1cc(Oc2ccc(C(C)(C)C)cc2)ccc1OCCCOc1cccc(C2SC(=O)NC2=O)c1` (configuration not stated) gave a half-inhibitory concentration (IC50) of over 50 µM.

Take `O=C1NC(=O)C(c2cccc(OCCCOc3ccc(Oc4ccccc4)cc3)c2)S1` (configuration not stated): 0.19 µM corresponded to half-maximal inhibition in [4] (IC50).

`CCCc1cc(Oc2ccc(F)c(C)c2)ccc1OCCCOc1cccc(C2SC(=O)NC2=O)c1` (configuration not stated): the bioavailability in series [2] was 20%. This molecule registered a nAUC in series [3] of 0.6 uMh. This molecule yielded an IC50 in [4] of over 50 µM. In addition, in series [5], the half-life is 3.3 h. Moreover, in series [6], the Glucose correction worked out at 78%. Besides, in series [7], the Triglyceride correction is reported as 69%. The clearance in series [8] was 10.5 mL/min/kg. Moreover, the EC50 in series [9] is over 50 µM.

The molecule `CCCc1cc(Oc2ccc(F)cc2)ccc1OCCCOc1cccc(C2SC(=O)NC2=O)c1` (configuration not stated) had a bioavailability in series [2] of 66%. Further, the nAUC in series [3] stood at 3.3 uMh. The same molecule gave a 50% inhibitory concentration (IC50) in [4] of over 5 µM. The half-life in series [5] is 1.3 h. Also, in [6], the Glucose correction came to 90%. In [7], this molecule returned a Triglyceride correction of 76%. The clearance in series [8] came to 10.2 mL/min/kg. In [9], this molecule returned an EC50 of over 3 µM.

`CCCc1cc(Oc2ccc(-c3ccccc3)cc2)ccc1OCCCOc1cccc(C2SC(=O)NC2=O)c1` (configuration not stated) had a half-inhibitory concentration (IC50) in series [4] of over 50 µM. Moreover, the EC50 in series [9] was over 3 µM.

As for `CCCc1cc(Oc2ccc(C3CCCC3)cc2)ccc1OCCCOc1cccc(C2SC(=O)NC2=O)c1` (configuration not stated), the IC50 in series [4] is over 50 µM. The half-maximal effective concentration (EC50) in series [9] is over 3 µM.

For `CN(CCOc1ccc(CC2SC(=O)NC2=O)cc1)c1ccccn1` (configuration not stated) [ROSIGLITAZONE], in [3], the nAUC is 16.4 uMh. The molecule also showed a Glucose correction in series [6] of 67%. Also, the Triglyceride correction in series [7] was 74%.

These data come from ChEMBL document CHEMBL1136170, “5-aryl thiazolidine-2,4-diones: discovery of PPAR dual alpha/gamma agonists as antidiabetic agents” (Bioorg Med Chem Lett, 2003).
